{
  "source": "PubChem BioAssay AID1259407",
  "about": "(Chemical Carcinogenesis Research Information System (CCRIS), 2018)",
  "system": "CCRIS mutagenicity, Ames/micronucleus/aberration tests",
  "experiment": "CCRIS mutagenicity studies",
  "key": {"[1]": {"settings": "Test System: AMES SALMONELLA TYPHIMURIUM, Strain/Indicator: TA98, Metabolic Activation: NONE, Method: PREINCUBATION"}, "[2]": {"settings": "Test System: AMES SALMONELLA TYPHIMURIUM, Strain/Indicator: TA100, Metabolic Activation: NONE, Method: PREINCUBATION"}, "[3]": {"settings": "Test System: AMES SALMONELLA TYPHIMURIUM, Strain/Indicator: TA100, Metabolic Activation: RAT, LIVER, S-9, AROCLOR 1254 (10%), Method: PREINCUBATION"}, "[4]": {"settings": "Test System: AMES SALMONELLA TYPHIMURIUM, Strain/Indicator: TA1535, Metabolic Activation: NONE, Method: PREINCUBATION"}, "[5]": {"settings": "Test System: AMES SALMONELLA TYPHIMURIUM, Strain/Indicator: TA1537, Metabolic Activation: NONE, Method: PREINCUBATION"}},
  "note": "Calls of active or inactive are those of the source. How the calls were made is not given here.",
  "data": [
    {"smiles": "O=C=Nc1ccc(Cc2ccc(N=C=O)cc2)cc1", "values": [
      {"measurement": "mutagenic call", "setting": "Test System: AMES SALMONELLA TYPHIMURIUM, Strain/Indicator: TA98, Metabolic Activation: HAMSTER, LIVER, S-9, AROCLOR 1254 (10%), Method: PREINCUBATION", "result": "inactive; negative"},
      {"measurement": "mutagenic call", "setting": "[1]", "result": "inactive; negative"},
      {"measurement": "mutagenic call", "setting": "Test System: AMES SALMONELLA TYPHIMURIUM, Strain/Indicator: TA98, Metabolic Activation: RAT, LIVER, S-9, AROCLOR 1254 (10%), Method: PREINCUBATION", "result": "inactive; negative"},
      {"measurement": "mutagenic call", "setting": "Test System: AMES SALMONELLA TYPHIMURIUM, Strain/Indicator: TA98, Metabolic Activation: RAT, LIVER, S-9, KC 500, Method: PREINCUBATION", "result": "inactive; negative"},
      {"measurement": "mutagenic call", "setting": "Test System: AMES SALMONELLA TYPHIMURIUM, Strain/Indicator: TA100, Metabolic Activation: HAMSTER, LIVER, S-9, AROCLOR 1254 (10%), Method: PREINCUBATION", "result": "inactive; negative"},
      {"measurement": "mutagenic call", "setting": "[2]", "result": "inactive; negative"},
      {"measurement": "mutagenic call", "setting": "[3]", "result": "inactive; negative"},
      {"measurement": "mutagenic call", "setting": "Test System: AMES SALMONELLA TYPHIMURIUM, Strain/Indicator: TA100, Metabolic Activation: RAT, LIVER, S-9, KC 500, Method: PREINCUBATION", "result": "active; positive"},
      {"measurement": "mutagenic call", "setting": "Test System: AMES SALMONELLA TYPHIMURIUM, Strain/Indicator: TA1535, Metabolic Activation: HAMSTER, LIVER, S-9, AROCLOR 1254 (10%), Method: PREINCUBATION", "result": "inactive; negative"},
      {"measurement": "mutagenic call", "setting": "[4]", "result": "inactive; negative"},
      {"measurement": "mutagenic call", "setting": "Test System: AMES SALMONELLA TYPHIMURIUM, Strain/Indicator: TA1535, Metabolic Activation: RAT, LIVER, S-9, AROCLOR 1254 (10%), Method: PREINCUBATION", "result": "inactive; negative"},
      {"measurement": "mutagenic call", "setting": "Test System: AMES SALMONELLA TYPHIMURIUM, Strain/Indicator: TA1535, Metabolic Activation: RAT, LIVER, S-9, KC 500, Method: PREINCUBATION", "result": "inactive; negative"},
      {"measurement": "mutagenic call", "setting": "Test System: AMES SALMONELLA TYPHIMURIUM, Strain/Indicator: TA1537, Metabolic Activation: HAMSTER, LIVER, S-9, AROCLOR 1254 (10%), Method: PREINCUBATION", "result": "inactive; negative"},
      {"measurement": "mutagenic call", "setting": "[5]", "result": "inactive; negative"},
      {"measurement": "mutagenic call", "setting": "Test System: AMES SALMONELLA TYPHIMURIUM, Strain/Indicator: TA1537, Metabolic Activation: RAT, LIVER, S-9, AROCLOR 1254 (10%), Method: PREINCUBATION", "result": "inactive; negative"},
      {"measurement": "mutagenic call", "setting": "Test System: AMES SALMONELLA TYPHIMURIUM, Strain/Indicator: TA1537, Metabolic Activation: RAT, LIVER, S-9, KC 500, Method: PREINCUBATION", "result": "inactive; negative"},
      {"measurement": "mutagenic call", "setting": "Test System: AMES SALMONELLA TYPHIMURIUM, Strain/Indicator: TA1538, Metabolic Activation: NONE, Method: PREINCUBATION", "result": "inactive; negative"},
      {"measurement": "mutagenic call", "setting": "Test System: AMES SALMONELLA TYPHIMURIUM, Strain/Indicator: TA1538, Metabolic Activation: RAT, LIVER, S-9, KC 500, Method: PREINCUBATION", "result": "inactive; negative"},
      {"measurement": "mutagenic call", "setting": "Test System: E. COLI, Strain/Indicator: WP2 UVRA, Metabolic Activation: NONE, Method: PREINCUBATION", "result": "inactive; negative"},
      {"measurement": "mutagenic call", "setting": "Test System: E. COLI, Strain/Indicator: WP2 UVRA, Metabolic Activation: RAT, LIVER, S-9, KC 500, Method: PREINCUBATION", "result": "inactive; negative"}
    ]},
    {"smiles": "CC(=O)N[C@@H](CS/C(Cl)=C(\\Cl)C(Cl)=C(Cl)Cl)C(=O)O", "values": [
      {"measurement": "mutagenic call", "setting": "[2]", "result": "inactive; negative"},
      {"measurement": "mutagenic call", "setting": "Test System: AMES SALMONELLA TYPHIMURIUM, Strain/Indicator: TA100, Metabolic Activation: RAT, KIDNEY, CYTOSOL, Method: PREINCUBATION", "result": "active; positive"},
      {"measurement": "mutagenic call", "setting": "[3]", "result": "active; positive"}
    ]},
    {"smiles": "CN(N)C=O", "values": [
      {"measurement": "mutagenic call", "setting": "[4]", "result": "inactive; negative"},
      {"measurement": "mutagenic call", "setting": "Test System: AMES SALMONELLA TYPHIMURIUM, Strain/Indicator: TA1535, Metabolic Activation: RAT, LIVER, S-9, AROCLOR 1254, Method: PREINCUBATION", "result": "inactive; negative"},
      {"measurement": "mutagenic call", "setting": "[5]", "result": "inactive; negative"},
      {"measurement": "mutagenic call", "setting": "Test System: AMES SALMONELLA TYPHIMURIUM, Strain/Indicator: TA1537, Metabolic Activation: RAT, LIVER, S-9, AROCLOR 1254, Method: PREINCUBATION", "result": "inactive; negative"}
    ]},
    {"smiles": "O=O", "values": [
      {"measurement": "mutagenic call", "setting": "Test System: AMES SALMONELLA TYPHIMURIUM, Strain/Indicator: TA92, Metabolic Activation: NONE, Method: PREINCUBATION", "result": "inactive; negative"},
      {"measurement": "mutagenic call", "setting": "Test System: AMES SALMONELLA TYPHIMURIUM, Strain/Indicator: TA97, Metabolic Activation: NONE, Method: PREINCUBATION", "result": "inactive; negative"},
      {"measurement": "mutagenic call", "setting": "[2]", "result": "inactive; negative"},
      {"measurement": "mutagenic call", "setting": "Test System: AMES SALMONELLA TYPHIMURIUM, Strain/Indicator: TA102, Metabolic Activation: NONE, Method: PREINCUBATION", "result": "active; positive"},
      {"measurement": "mutagenic call", "setting": "Test System: AMES SALMONELLA TYPHIMURIUM, Strain/Indicator: TA104, Metabolic Activation: NONE, Method: PREINCUBATION", "result": "active; positive"},
      {"measurement": "mutagenic call", "setting": "[4]", "result": "inactive; negative"},
      {"measurement": "mutagenic call", "setting": "[5]", "result": "inactive; negative"},
      {"measurement": "mutagenic call", "setting": "Test System: CHINESE HAMSTER V-79, Strain/Indicator: V-79/8-AZAGUANINE, Metabolic Activation: NONE, Method: STANDARD PLATE", "result": "active; positive"},
      {"measurement": "mutagenic call", "setting": "Test System: CHINESE HAMSTER V-79 CELLS, Strain/Indicator: V-79-UL (HPRT)/6-THIOGUANINE, Metabolic Activation: NONE, Method: SUSPENSION/PLATE", "result": "active; positive"},
      {"measurement": "mutagenic call", "setting": "Test System: MOUSE LYMPHOMA, Strain/Indicator: L5178Y (TK+/-), Metabolic Activation: NONE, Method: SUSPENSION/PLATE", "result": "active; positive"}
    ]},
    {"smiles": "N[C@@H](CS/C(Cl)=C(\\Cl)C(Cl)(Cl)Cl)C(=O)O", "values": [
      {"measurement": "mutagenic call", "setting": "[2]", "result": "active; positive"},
      {"measurement": "mutagenic call", "setting": "Test System: AMES SALMONELLA TYPHIMURIUM, Strain/Indicator: TA100, Metabolic Activation: RAT, LIVER OR KIDNEY, MICROSOMES, Method: PREINCUBATION", "result": "active; positive"}
    ]},
    {"smiles": "O=S(=O)(O)Oc1ccc2ccc3c4ccccc4cc4ccc1c2c43", "values": [
      {"measurement": "mutagenic call", "setting": "[1]", "result": "inactive; negative"},
      {"measurement": "mutagenic call", "setting": "Test System: AMES SALMONELLA TYPHIMURIUM, Strain/Indicator: TA98, Metabolic Activation: RAT, LUNG, S-9, Method: PREINCUBATION", "result": "inactive; negative"}
    ]},
    {"smiles": "O=[N+]([O-])c1ccc2[nH]c3c([N+](=O)[O-])cccc3c2c1", "values": [
      {"measurement": "mutagenic call", "setting": "Test System: AMES SALMONELLA TYPHIMURIUM, Strain/Indicator: TA98(NR), Metabolic Activation: NONE, Method: STANDARD PLATE", "result": "active; positive"},
      {"measurement": "mutagenic call", "setting": "Test System: AMES SALMONELLA TYPHIMURIUM, Strain/Indicator: TA98(NR), Metabolic Activation: RAT, LIVER, S-9, AROCLOR 1254, Method: STANDARD PLATE", "result": "active; positive"},
      {"measurement": "mutagenic call", "setting": "Test System: AMES SALMONELLA TYPHIMURIUM, Strain/Indicator: TA98, Metabolic Activation: NONE, Method: STANDARD PLATE", "result": "active; positive"},
      {"measurement": "mutagenic call", "setting": "Test System: AMES SALMONELLA TYPHIMURIUM, Strain/Indicator: TA98, Metabolic Activation: RAT, LIVER, S-9, AROCLOR 1254, Method: STANDARD PLATE", "result": "active; positive"}
    ]}
  ]
}
